The text below walks through data of patent publication US20100093808A1, “SALT AND POLYMORPH OF A DPP-IV INHIBITOR” (priority 2005, published 2010).

Where a name gives a salt, the structure may show the parent alone.

In the assay the target is T1, human DPP-IV (Homo sapiens, UniProt P27487).
T1 construct: made in house; host or cells: Pichia pastoris (purified from the culture medium)
The assay is described as follows: DPP-IV activity assay (colorimetric / fluorometric). In kind it is biochemical. As to conditions: natural human DPP-IV from human plasma pool or recombinant human DPP-IV; 37° C., pH 7.8. How it is done:
Activity of DPP-IV inhibitors are tested with natural human DPP-IV derived from a human plasma pool or with recombinant human DPP-IV. Human citrate plasma from different donors is pooled, filtered through a 0.2 micron membrane under sterile conditions and aliquots of 1 mL are shock frozen and stored at […]. until used. In the colorimetric DPP-IV assay 5 to 10 μL human plasma and in the fluorometric assay 1.0 μL of human plasma in a total assay volume of 100 μL is used as an enzyme source. The cDNA of the human DPP-IV sequence of amino acid 31- to 766, restricted for the N-terminus and the transmembrane domain, is cloned into pichia pastoris. […]
In the colorimetric assay H-Ala-Pro-pNA.HCl (Bachem L-1115) is used as a substrate. […] Fluorescence is detected in a Perkin Elmer Luminescence Spectrometer LS 50B at an excitation wavelength of 400 nm and an emission wavelength of 505 nm continuously every 15 seconds for 10 to 30 minutes. Initial rate constants are calculated by best fit linear regression. The absorption of pNA liberated from the colorimetric substrate is detected in a Packard SpectraCount at […] continuously every 2 minutes for 30 to 120 minutes. Initial rate constants are calculated by best fit linear regression. […]
IC50 determinations of test compounds are calculated by non-linear best fit regression of the DPP-IV inhibition of at least 5 different compound concentrations. […]

T1 sequence (P27487 31-766): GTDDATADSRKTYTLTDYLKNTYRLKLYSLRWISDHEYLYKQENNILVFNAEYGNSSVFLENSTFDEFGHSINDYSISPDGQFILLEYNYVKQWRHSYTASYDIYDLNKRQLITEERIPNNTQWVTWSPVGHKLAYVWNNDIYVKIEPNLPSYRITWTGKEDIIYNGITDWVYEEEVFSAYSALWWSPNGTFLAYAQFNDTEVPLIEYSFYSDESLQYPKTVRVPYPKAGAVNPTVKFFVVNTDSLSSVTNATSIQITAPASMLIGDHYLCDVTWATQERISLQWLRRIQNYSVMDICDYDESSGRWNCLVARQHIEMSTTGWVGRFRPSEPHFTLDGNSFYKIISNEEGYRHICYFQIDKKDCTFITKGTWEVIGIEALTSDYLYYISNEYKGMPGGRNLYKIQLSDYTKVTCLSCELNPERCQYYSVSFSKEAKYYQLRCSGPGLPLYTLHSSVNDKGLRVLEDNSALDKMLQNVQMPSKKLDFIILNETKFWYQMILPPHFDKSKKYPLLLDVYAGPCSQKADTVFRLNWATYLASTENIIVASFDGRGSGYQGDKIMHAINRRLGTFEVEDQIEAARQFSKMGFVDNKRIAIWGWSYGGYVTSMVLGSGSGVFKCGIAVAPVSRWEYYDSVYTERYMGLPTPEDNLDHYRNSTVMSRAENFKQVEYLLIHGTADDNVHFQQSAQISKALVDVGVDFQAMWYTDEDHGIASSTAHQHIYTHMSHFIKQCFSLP

For the molecule `CC(C)(CCn1cnc(-c2cccnc2)c1)NCC(=O)N1CCC[C@H]1C#N` [(2S)-1-{[1,1-Dimethyl-3-(4-pyridin-3-yl-imidazol-1-yl)-propylamino]-acetyl}-pyrrolidine-2-carbonitrile fumarate], the IC50 worked out at 21.2 nM and the inhibition constant Ki turned out to be 22.7 nM.

Usually IC50 stands for the point on the concentration scale where inhibition reaches its midpoint. By Ki is commonly meant the equilibrium dissociation constant of an inhibitor or competing ligand from its target.
